Assay results published in patent US5276120A, “Process for forming omega-deuxy-azasugars” (The Scripps Research Institute, priority 1992, dated 1994).
Read-outs that look alike come from different tables or passages of the source.

Experiments:
α-L-Fucosidase = α-L-Fucosidase inhibition, hydrolysis of p-nitrophenyl-α-L-fucoside; assay type: biochemical; conditions: for Type of fucosidase inhibition: versus fuc-pNP
Protocol: α-L-Fucosidase activity was measured by incubating the enzyme (0.005 Units) with fuc-pNP ([…]) in 0.4 ml of 50 mM acetate buffer, pH 5.5 for 20 minutes at 25° C. in the absence and presence of the azasugars of the present invention. The reaction was stopped by the addition of 0.8 ml of 2 Mm glycine buffer, pH 10.5. The amount of formed p-nitrophenol was determined by optical density spectroscopy at a wavelength of 400 nm.

α-Glucosidase (BY) = target: T1, α-Glucosidase (BY) (Saccharomyces cerevisiae, UniProt P07265); assay: Glycosidase inhibition, α-glucosidase from brewers yeast; assay type: biochemical
T1 construct: purchased Sigma
From the text: (§1) Materials: All of the buffers, enzymes, and substrates were purchased from Sigma and used as received. These included piperazine-N,N'-bis(2-ethanesulfonic acid) (PIPES), sodium acetate (NaOAc), ethylenediaminetetraacetic acid (EDTA), β-D-glucosidase (from sweet almond), p-nitrophenyl β-D-glucoside, α-D-glucosidase, p-nitrophenyl α-D-glucoside, β-N-acetyl-D-glucosaminedase, p-nitrophenyl β-N-acetyl-D-glucosaminide, α-D-mannosidase, and p-nitrophenyl α-D-mannoside.
b) PIPES-NaOAc buffer (0.01M PIPES, 0.2M NaOAc and 0.01 mM EDTA, pH 6.5). This buffer was prepared according to the literature procedure [Dale et al., Biochemistry 1985, 24, 3530].
d) α-D-Glucosidase: 1.5 mg of solid protein (70 units/mg) were dissolved in 1 mL PIPES-NaOAc buffer solution and used for assays without further dilution.
g) Substrate solutions: all substrates were dissolved in the corresponding buffer solution for enzymatic assay.
(§2) For each inhibitor, five inhibitor concentrations, ranging from zero to three times Ki, were generally used to determine the Ki value. […] The amount of enzyme added in each assay was adjusted so that less than 10 percent of the substrate, with its lowest substrate concentration, would be consumed within 45 seconds. Since all of the substrates have p-nitrophenol as leaving group, the assays were monitored at 400 nanometers (nm), where the molecular extinction coefficient, ε, was calibrated to be 3204.5M^-1 cm^-1 at pH 6.5. The following illustrates the detailed procedure.
To a 1 mL disposable cuvette were added […] (μL) of the NaOAc-PIPES buffer solution, 20 μL of the inhibitor solution and 20 μL of the p-nitrophenyl β-D-glucoside solution (100 Mm in PIPES-NaoAc buffer, PH 6.5). The solution was well mixed and 20 μL of the β-D-glucosidase solution were injected into the cuvette to start the reaction. The reaction was monitored at 400 nm on a Beckman DU-70 photospectrometer for 45 seconds and the initial hydrolysis rate was calculated. The same procedure was repeated with five other substrate concentrations. After all the initial rates were accumulated, the corresponding Lineweaver-Burk plot at that inhibitor concentration was constructed.
PIPES-NaOAc buffer was used for all the enzymes except β-N-acetyl-D-glucosaminedase, for which PIPES buffer was used.

[1] = system: β-D-Galactosidase (jack bean); assay: Glycosidase inhibition, β-D-galactosidase (jack bean); assay type: biochemical; conditions: 10 mM inhibitor in the assay
From the text: as §2

β-Glucosidase (SA) = assay: Glycosidase inhibition, β-glucosidase from sweet almond; assay type: biochemical; conditions: kinetic analysis
From the text: as §1
b) PIPES-NaOAc buffer (0.01M PIPES, 0.2M NaOAc and 0.01 mM EDTA, pH 6.5). This buffer was prepared according to the literature procedure [Dale et al., Biochemistry 1985, 24, 3530]. […]
For each inhibitor, five inhibitor concentrations, ranging from zero to three times Ki, were generally used to determine the Ki value. […] Since all of the substrates have p-nitrophenol as leaving group, the assays were monitored at 400 nanometers (nm), where the molecular extinction coefficient, ε, was calibrated to be 3204.5M^-1 cm^-1 at pH 6.5. […]
To a 1 mL disposable cuvette were added 950 microliters (μL) of the NaOAc-PIPES buffer solution, 20 μL of the inhibitor solution and 20 μL of the p-nitrophenyl β-D-glucoside solution (100 Mm in PIPES-NaoAc buffer, PH 6.5). […] The reaction was monitored at 400 nm on a Beckman DU-70 photospectrometer for 45 seconds and the initial hydrolysis rate was calculated. […]

[2] = target: T2, α-Glucosidase Type I (calf liver) (Bos taurus, UniProt A0A3Q1M9D9); assay: Glycosidase inhibition, α-glucosidase Type I (calf liver); assay type: biochemical; conditions: footnote not given
T2 construct: host or cells: calf liver
T2 sequence (A0A3Q1M9D9 1-839): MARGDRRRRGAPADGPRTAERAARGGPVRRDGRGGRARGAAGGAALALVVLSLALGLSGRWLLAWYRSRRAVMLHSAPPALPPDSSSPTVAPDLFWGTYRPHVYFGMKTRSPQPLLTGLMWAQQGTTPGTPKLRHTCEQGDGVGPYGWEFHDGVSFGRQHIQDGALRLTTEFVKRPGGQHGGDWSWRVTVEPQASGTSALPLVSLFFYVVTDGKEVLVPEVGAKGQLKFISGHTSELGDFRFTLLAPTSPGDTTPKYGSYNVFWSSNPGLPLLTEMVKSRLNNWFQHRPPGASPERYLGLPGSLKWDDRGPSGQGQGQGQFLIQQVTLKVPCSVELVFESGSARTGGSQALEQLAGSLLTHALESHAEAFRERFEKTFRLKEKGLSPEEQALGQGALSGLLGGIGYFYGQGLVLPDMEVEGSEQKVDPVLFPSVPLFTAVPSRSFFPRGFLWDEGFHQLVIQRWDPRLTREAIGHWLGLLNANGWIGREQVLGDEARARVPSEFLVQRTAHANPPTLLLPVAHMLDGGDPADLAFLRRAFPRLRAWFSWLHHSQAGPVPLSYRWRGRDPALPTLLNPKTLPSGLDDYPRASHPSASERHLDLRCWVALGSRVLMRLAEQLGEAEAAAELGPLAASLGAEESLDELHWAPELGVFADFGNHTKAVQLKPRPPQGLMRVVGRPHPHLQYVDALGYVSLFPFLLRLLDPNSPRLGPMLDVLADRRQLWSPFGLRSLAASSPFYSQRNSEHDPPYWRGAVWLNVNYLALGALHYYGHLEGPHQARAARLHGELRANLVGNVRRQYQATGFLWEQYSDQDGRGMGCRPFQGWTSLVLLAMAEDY

[3] = system: AIDS virus gp160 envelope protein precursor; conditions: Walker et al., Proc. Natl. Acad. Sci. 1987, 84, 8120; cited from earlier work
[4] = fuc-pNP substrate, 50 mM acetate buffer, pH 5.5, 25° C., read-out: Ki (mM), α-L-Fucosidase Inhibition (Table 2)
[5] = pH 6.5, p-nitrophenyl α-D-glucoside, Lineweaver-Burk, read-out: Ki (M), α-Glucosidase (BY)

T1 sequence (P07265 whole entry): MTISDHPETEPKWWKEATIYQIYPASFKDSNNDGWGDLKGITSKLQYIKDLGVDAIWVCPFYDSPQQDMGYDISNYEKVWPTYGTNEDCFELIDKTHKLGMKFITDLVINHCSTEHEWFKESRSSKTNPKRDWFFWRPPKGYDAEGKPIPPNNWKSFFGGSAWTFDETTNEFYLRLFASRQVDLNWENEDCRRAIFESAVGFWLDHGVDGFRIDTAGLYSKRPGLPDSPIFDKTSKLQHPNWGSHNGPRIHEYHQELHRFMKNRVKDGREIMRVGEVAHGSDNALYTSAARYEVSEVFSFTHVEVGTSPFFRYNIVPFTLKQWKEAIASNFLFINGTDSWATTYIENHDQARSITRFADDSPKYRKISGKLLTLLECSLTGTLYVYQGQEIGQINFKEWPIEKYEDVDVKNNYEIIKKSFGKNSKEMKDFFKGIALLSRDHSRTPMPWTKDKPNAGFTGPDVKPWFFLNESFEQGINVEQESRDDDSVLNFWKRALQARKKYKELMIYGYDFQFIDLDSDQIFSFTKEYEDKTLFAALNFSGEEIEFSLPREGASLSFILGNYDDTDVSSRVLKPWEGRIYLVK

With Oc1ccccc1 [phenol] the Ki (α-L-Fucosidase; noncompetitive inhibitor, analog of p-nitrophenol, read-out: Kis) was 0.18 ± 0.02 mM and the “Type of fucosidase inhibition” value (α-L-Fucosidase) was “noncompetitive inhibitor”.
With C[C@@H]1OC(O)[C@@H](O)[C@H](O)[C@@H]1O (stereo partly drawn) [L-Fucose] the Ki (α-L-Fucosidase; competitive inhibitor versus fuc-pNP, read-out: Ki versus fuc-pNP) was 0.3 ± 0.01 mM, the Ki (α-L-Fucosidase; [4]) was 0.3 ± 0.1 mM and the “Type of fucosidase inhibition” value (α-L-Fucosidase) was “competitive inhibitor”.
With OCC1NCC(O)C(O)C1O (stereo not shown) [Compound 23, 1-deoxynojirimycin] the Ki (α-Glucosidase (BY)) was 8.67e-06 M and the “Inhibition of β-D-Galactosidase (jack bean)” value [1] was “No inhibition”.
With C[C@@H]1[C@@H](O)[C@H](O)[C@@H](O)CN1C [Compound 17, N-Methyl-1,5,6-trideoxy-1,5-imino-D-glucitol] the Ki (α-Glucosidase (BY); [5]) was 0.00178 M.
With CC1C(O)C(O)C(O)C[N+]1(C)[O-] [Compound 18, N-Methyl-1,5,6-trideoxy-1,5-imino-D-glucitol oxide] the Ki (α-Glucosidase (BY); [5]) was 0.00695 M and the “Potency relative to Compound 17, β-glucosidase from sweet almond” value (β-Glucosidase (SA)) was “less potent inhibitor than Compound 17”.
For CN1CC(O)C(O)C(O)C1CO (stereo not shown) [Compound 19, N-methyl 1-deoxynojirimycin], the Ki [2] was 70 nM and the Ki (α-Glucosidase (BY)) was 0.000369 M.
With OC[C@H]1NC[C@@H](O)[C@@H](O)[C@@H]1O [D-1-deoxymannojirimycin, 1,5-dideoxy-1,5-imino-D-mannitol] the Ki (α-L-Fucosidase; [4]) was 0.03 ± 0.01 mM.
For OC1CN2CCC(O)C2C(O)C1O (stereo not shown) [castanospermine, 1,6,7,8-tetrahydroxyoctahydroindolizine], the “Effect on processing of AIDS virus gp160 envelope protein precursor” value [3] is listed as “inhibit the processing of the AIDS virus gp160 envelope protein precursor”.
With C[C@H]1NC[C@H](O)[C@@H](O)[C@@H]1O [Compound 3c, 1,5,6-Trideoxy-1,5-imino-D-glucitol] the Ki (α-Glucosidase (BY)) was 0.00156 M.
OCC1NCC(O)C(O)C1O [Compound 124, D-1-deoxytalonojirimycin] gave a Ki (α-L-Fucosidase; [4]) of 0.05 ± 0.006 mM.
